Experimental data taken from patent US6727288B2, “Method for treating bone fracture” (Juneng Industry Co., Ltd., priority 2001, dated 2004).
Marks after values point to notes of the source that are not given here.

Experiments:
osteoblasts (OB2) [1] = assay: Osteoblast (OB2) proliferation, MTT method; assay type: cell-based, SD rat; settings: for A570 (X ± SD): 72 hours, MTT, n = 4
Protocol: (§1) 1) Sampling: after a newborn (within 24 hours) SD rat was disinfected, the calvaria were excised under sterilization conditions. The calvaria were predigested by 0.25% trypsin for 10-15 minutes firstly, then oscillated and digested by 0.1% collagenase II at 37° C. for 60 minutes. The cells were collected by centrifugation at 1000 rpm.
(§2) 2) Cell culture: The isolated cells were inoculated into culture flask at a concentration of 1×10^4/cm^2, wherein the culture solution is 10% of NCS-MEM. The cells were cultured in an incubator with 5% CO2 at 37° C., then passaged until half confluence. The second generation of secondary cells (OB2) were tested for pharmacodynamics.
(§3) 3) Medicines: Each test medicine was formulated at a concentration of 0.1 mol/L, and sterilized by high pressure for later use.
(§4) 2.24 g of calcium gluconate was dissolved in 50 ml of deionized water at room temperature. The control group was deionized water.
OB2 were inoculated into 24 well COSTOR culture plate at a density of 6×10^3 per well. 24 hours later, the above culture solution was replaced by culture solution containing varying concentrations of medicines ranging from 10^−9 to 10^−3 mol/L. 72 hours after adding medicines, the cells were tested through Labsystems Multiskan MS (Finland) )ELISA analyzer by MTT method. OD value at 570 nm was used to reflect cell proliferation.

[2] = system: ALP activity of osteoblast (OB2); assay: ALP activity of OB2 cell lysates, para-nitrobenzene phosphate method; assay type: cell-based, SD rat; settings: 10^−3 mol/L; for ALP activity of osteoblast: n = 4
Protocol: as §1, §2, §3, §4
OB2 was inoculated into 24 well COSTOR culture plate at a density of 2×10^4 per well. 24 hours later, the above culture solution was replaced by medium containing medicines. Then the culture solution was changed every 48 hours until confluence of cells was reached. ALP activity of cell lysates was measured by para-nitrobenzene phosphate method. Content of protein in cell lysates was measured by Coomassie brilliant blue method.

osteoblasts (OB2) [3] = assay: Mineralization function of OB2, alizarin red nodule count; assay type: cell-based, SD rat; settings: for Number of mineralization nodules: 14 days, alizarin red, n = 4
Protocol: as §1, §2, §3, §4
OB2 was inoculated into 6 well COSTOR culture plate at a density of 5×10^4 per well. 24 hours later, the above culture solution was replaced by culture solution containing medicines. Then the solution was changed every 48 hours. 14 days later, the cells were fixed and stained with alizarin red.

[4] = system: α-COLI mRNA in osteoblast (OB2); assay: mRNA expression of α-COLI in osteoblasts by quantitative RT-PCR; assay type: cell-based, SD rat; settings: 10^−3 mol/L; for level of α-COLI mRNA compared with control group: quantitative RT-PCR, in words
Protocol: 1. Cell Culture: The culture method of primary osteoblast was the same as that of the previous test. OB2 was inoculated at density of 1×10^4 cells/cm^2. […] Culture medium was changed every 48 hours and the medicines were added. Total RNA of the cells was extracted one week later.
2. Extraction of RNA: The cells were digested with 0.25% trypsin, and were centrifuged at 1000 rpm for 5 min to collect cell pellets. Total RNA was extracted with TRIzol reagent (Gibco Co.) method.
3. Reverse transcriptase polymerase chain reaction (RT-PCR): Access RT-PCR System kit (Promega) was used in the test, following the directions of the kit. The RT-PCR of the reaction mixture was performed in PCR analyzer (Bio-Rad Inc.) at 48° C. for 45 min. Inactivate enzyme at 94° C. for 2 min, then 30 cycles of PCR reaction: […] at 94° C. for degeneration, 1 min at 54° C. for annealing, 2 min at 72° C. for extension, and after the last cycle, 7 min at 72° C. for another extension. 9 μl PCR products were analyzed in 1.5% agarose gel electrophoresis. Then the bands were analyzed by image analysis system (Image Master VDS). Optical density value was calibrated by internal reference-Actin, and the calibration values were analyzed statistically.
4. Medicines: Each test medicine was formulated at the concentration of 0.1 mol/L, and sterilized by high pressure for later use. […] Calcium gluconate, Shanghai Huanghai Pharmaceutical Factory, 2.24 g was dissolved in 50 ml deionized water.

emasculated rat = settings: in words

[Ca+2].[Cl-].[Cl-] [Calcium chloride]
A570 (X ± SD) (osteoblasts (OB2) [1]; test I, 10^−3 mol/L): 0.325 ± 0.052 | A570 (X ± SD) (osteoblasts (OB2) [1]; test I, 10^−5 mol/L): 0.277 ± 0.037 | A570 (X ± SD) (osteoblasts (OB2) [1]; test I, 10^−7 mol/L): 0.239 ± 0.005^& | A570 (X ± SD) (osteoblasts (OB2) [1]; test I, 10^−9 mol/L): 0.237 ± 0.005^& | A570 (X ± SD) (osteoblasts (OB2) [1]; test II, 10^−3 mol/L): 0.423 ± 0.028***^& | A570 (X ± SD) (osteoblasts (OB2) [1]; test II, 10^−5 mol/L): 0.324 ± 0.047^& | A570 (X ± SD) (osteoblasts (OB2) [1]; test II, 10^−7 mol/L): 0.268 ± 0.022^& | A570 (X ± SD) (osteoblasts (OB2) [1]; test II, 10^−9 mol/L): 0.292 ± 0.023 | A570 (X ± SD) (osteoblasts (OB2) [1]; test III, 10^−3 mol/L): 0.281 ± 0.014 | A570 (X ± SD) (osteoblasts (OB2) [1]; test III, 10^−5 mol/L): 0.268 ± 0.025^& | A570 (X ± SD) (osteoblasts (OB2) [1]; test III, 10^−7 mol/L): 0.229 ± 0.09 | A570 (X ± SD) (osteoblasts (OB2) [1]; test III, 10^−9 mol/L): 0.267 ± 0.016 | ALP activity of osteoblast ([2]; Experiment 1): 0.119 ± 0.039 U/mg of protein | ALP activity of osteoblast ([2]; Experiment 2): 0.122 ± 0.08 U/mg of protein | ALP activity of osteoblast ([2]; Experiment 3): 0.102 ± 0.008 U/mg of protein | Number of mineralization nodules (osteoblasts (OB2) [3]): 6.4 ± 1.673^&

Calcium gluconate
Relative expression amount of α-COLI ([4]; one week, calibrated by β-Actin, X ± SD, n = 3): 1.2524 ± 0.377 | level of α-COLI mRNA compared with control group [4]: no significant difference | A570 (X ± SD) (osteoblasts (OB2) [1]; test I, 10^−3 mol/L): 0.381 ± 0.052 | A570 (X ± SD) (osteoblasts (OB2) [1]; test I, 10^−5 mol/L): 0.351 ± 0.039 | A570 (X ± SD) (osteoblasts (OB2) [1]; test I, 10^−7 mol/L): 0.267 ± 0.009*^& | A570 (X ± SD) (osteoblasts (OB2) [1]; test I, 10^−9 mol/L): 0.265 ± 0.025 | A570 (X ± SD) (osteoblasts (OB2) [1]; test II, 10^−3 mol/L): 0.359 ± 0.072**^& | A570 (X ± SD) (osteoblasts (OB2) [1]; test II, 10^−5 mol/L): 0.301 ± 0.051 | A570 (X ± SD) (osteoblasts (OB2) [1]; test II, 10^−7 mol/L): 0.268 ± 0.019*^& | A570 (X ± SD) (osteoblasts (OB2) [1]; test II, 10^−9 mol/L): 0.248 ± 0.017^& | A570 (X ± SD) (osteoblasts (OB2) [1]; test III, 10^−3 mol/L): 0.229 ± 0.021 | A570 (X ± SD) (osteoblasts (OB2) [1]; test III, 10^−5 mol/L): 0.242 ± 0.012 | A570 (X ± SD) (osteoblasts (OB2) [1]; test III, 10^−7 mol/L): 0.233 ± 0.021^$ | A570 (X ± SD) (osteoblasts (OB2) [1]; test III, 10^−9 mol/L): 0.229 ± 0.017 | ALP activity of osteoblast ([2]; Experiment 1): 0.115 ± 0.009 U/mg of protein | ALP activity of osteoblast ([2]; Experiment 2): 0.140 ± 0.016 U/mg of protein | ALP activity of osteoblast ([2]; Experiment 3): 0.107 ± 0.025 U/mg of protein | Number of mineralization nodules (osteoblasts (OB2) [3]): 6.2 ± 2.588^&

calcium L-threonate
level of α-COLI mRNA compared with control group [4]: increased significantly | effect on proliferation of osteoblast (osteoblasts (OB2) [1]; 10^−9-10^−3 mol/L, in words): promoting proliferation of osteoblast | A570 (X ± SD) (osteoblasts (OB2) [1]; test I, 10^−3 mol/L): 0.458 ± 0.019 | A570 (X ± SD) (osteoblasts (OB2) [1]; test I, 10^−5 mol/L): 0.405 ± 0.085 | A570 (X ± SD) (osteoblasts (OB2) [1]; test I, 10^−7 mol/L): 0.401 ± 0.082 | A570 (X ± SD) (osteoblasts (OB2) [1]; test I, 10^−9 mol/L): 0.387 ± 0.087 | A570 (X ± SD) (osteoblasts (OB2) [1]; test II, 10^−3 mol/L): 0.486 ± 0.010 | A570 (X ± SD) (osteoblasts (OB2) [1]; test II, 10^−5 mol/L): 0.449 ± 0.041 | A570 (X ± SD) (osteoblasts (OB2) [1]; test II, 10^−7 mol/L): 0.371 ± 0.047 | A570 (X ± SD) (osteoblasts (OB2) [1]; test II, 10^−9 mol/L): 0.418 ± 0.047 | A570 (X ± SD) (osteoblasts (OB2) [1]; test III, 10^−3 mol/L): 0.386 ± 0.024 | A570 (X ± SD) (osteoblasts (OB2) [1]; test III, 10^−5 mol/L): 0.327 ± 0.034 | A570 (X ± SD) (osteoblasts (OB2) [1]; test III, 10^−7 mol/L): 0.338 ± 0.048 | A570 (X ± SD) (osteoblasts (OB2) [1]; test III, 10^−9 mol/L): 0.316 ± 0.073 | biomechanical parameters (emasculated rat): significantly increase | bone density (emasculated rat): significantly increase | content of bone calcium (emasculated rat): significantly increase | ALP activity of OB2 versus control group ([2]; in words): higher than that of control group | ALP activity of osteoblast ([2]; Experiment 1): 0.156 ± 0.002 U/mg of protein | ALP activity of osteoblast ([2]; Experiment 2): 0.208 ± 0.003 U/mg of protein | ALP activity of osteoblast ([2]; Experiment 3): 0.164 ± 0.026 U/mg of protein | Number of mineralization nodules (osteoblasts (OB2) [3]): 12.0 ± 3.742 | number of mineralization nodules versus other groups (osteoblasts (OB2) [3]; within two weeks, in words): the largest
